Data from patent US20250259704A1, “SYSTEMS AND METHODS FOR CELL-FREE ITERATIVE SITE SATURATION MUTAGENESIS AND ITS APPLICATION FOR THE DIRECTED EVOLUTION OF ENZYMES CATALYZING UNNATURAL REACTIONS” (Northwestern University, priority 2022, published 2025).

Columns and labels:
Type in all cases: biochemical, Marinactinospora thermotolerans
amide synthetase McbA [1] = experiment: Amidation assay with purified McbA variants, products analyzed by LC-MS; details: for Fold-Increase in yield: best ML-predicted variant (ML-McbA) versus wt-McbA for the named product, purified enzyme 0.5 mg/mL, n=3
Method: (§1) Amide products (along with acid substrates and some adenylated acid intermediates) were analyzed using an Agilent G6125B Single Quadrupole LC/MSD system equipped with an electrospray ionization source set to positive ionization mode. The quenched samples were centrifuged for 10 min at 4,500×g to remove precipitated proteins. A separate 384-well plate for sample injection into the HPLC-MS was prepared by diluting 5 μL of the quenched samples with 25 μL of methanol using the Integra VIAFLO. Trace amounts of compounds were detected using MS, while many compounds were present in high enough concentration to quantify by diode array detector (DAD) at 254 nm. Compounds were separated on a Luna C18 Column (Phenomenex 00D-4251-B0) using mobile phases (A) H2O with 0.1% formic acid and (B) Acetonitrile. The general method for chromatographic separation was carried out using the following gradients at a constant flow rate of 0.5 mL/min: 0 min 5% B; 1 min 5% B; 4 min 95% B; 4.5 min 95% B; 5 min 5% B. For the MS, capillary voltage was set at 3 kV, and nitrogen gas was used for nebulizing (35 psig) and drying (12 l/min, 350° C.). The MS was calibrated using Tuning Mix (Agilent G2421-60001) before measurements were taken. MS data were acquired with a scan range of 50-600 m/z with various SIM m/z's according to which compound the inventors were screening for. LC-MS data were collected and analyzed using Agilent OpenLab CDS ChemStation software. The product yield was calculated by dividing the DAD peak area for the amide product by the sums of the peak areas of both the amide and the acid substrate.
Amidation assays for the purified McbA variants were set up similarly as described above. 8-μL reactions were assembled in triplicate, containing […], 10 mM MgCl2, 10 U/mL pyrophosphatase (Sigma I5907), 0.5 mg/mL McbA, 10% v/v DMSO, and volume to fill of 50 mM potassium phosphate pH 7.5. For assaying the production of cinchocaine and procainamide, substrates were decreased in stoichiometric amounts to 20 mM and 10 mM, respectively. This was to compensate for an observed poor solubility of these two acids (2-butoxyquinoline-4-carboxylic acid and 4-aminobenzoic acid) in the purified reaction at 10% v/v DMSO. Reactions were incubated at 37° C. for 16 hours and then quenched with 25-μL of methanol. The CAS numbers of all chemicals used in the hot spot screens, as well as the amide standards the inventors purchased, can be found in Table 1.
With the MLDE strategy validated, the approach could enable parallelized protein engineering for a wide variety of molecules (FIG. 14A). Starting with an identified target reaction from our substrate scope screen (FIGS. 5A-5F), we could use the same instance of our 1,280 single mutant McbA variant library to perform an HSS, select four hot spots, train and implement our machine learning model, and experimentally test the top 24 predictions (FIG. 14B). This approach was used to engineer distinct McbA mutants for the synthesis of an additional six pharmaceutical compounds (FIGS. 14B-14C). After identifying the best predicted variant for each reaction, the best variant for each reaction was expressed and purified, and the activity for each compound compared to wt-McbA (FIG. 14D). Fold-increase in yield observed compares wt-McbA to ML-McbA (n=3) for each small-molecule pharmaceutical. Increases in yield of the best mutant were observed ranging from 1.6-fold to 34-fold over wt-McbA for the six compounds tested.

amide synthetase McbA [2] = experiment: Substrate scope screen of McbA (all-by-all acids and amines, RP-HPLC); details: for wt conversion: conversion to the named amide product by wild-type McbA, ~1 μM enzyme, 25 mM substrates, 10% DMSO
Method: as §1, with “MS data were acquired with a scan range of 50-600 m/z with various SIM m/z's according to which compound the inventors were screening for.” left out
(§2) All high-throughput assays (hot spot screen, iterative site saturation mutagenesis, substrate scope, ML predictions validation, and ML prediction exploration) were assembled in 384-well plates (Bio-Rad) using an Integra VIAFLO liquid handling robot. […] The amidation assay was initiated by adding 3-μL of crude CFPS reaction containing an expressed McbA variant, with final concentrations of 25 mM ATP, 25 mM acid, 25 mM amine, 10% v/v DMSO, and ˜1 μM of enzyme (determined by ^14C-leucine incorporation using previously described protocols^66). […]

amide synthetase McbA [3] = experiment: High-throughput amidation assay with crude CFPS-expressed McbA variants (hot spot screen, ISM)
Method: as §1, with “MS data were acquired with a scan range of 50-600 m/z with various SIM m/z's according to which compound the inventors were screening for.” left out
as §2

Molecule	Fold-Increase in yield (amide synthetase McbA [1])	other results
CCN1CCCC1CNC(=O)c1cc(S(N)(=O)=O)ccc1OC (centres unmarked) [Sulpiride]	6 fold	–
COc1cc(C(=O)NC2CCCNC2)cc(OC)c1OC (centres unmarked) [Troxipide]	34 fold	–
CCN(CC)CCNC(=O)c1ccc(N)cc1 [Procainamide]	10 fold	–
COc1cc(C(=O)NCc2ccc(OCCN(C)C)cc2)cc(OC)c1OC [Trimethobenzamide]	4.1 fold	–
CCN(CC)CCNC(=O)c1cc(Cl)c(N)cc1OC [Metoclopramide]	–	wt conversion (amide synthetase McbA [2]): 3%
CCCCOc1cc(C(=O)NCCN(CC)CC)c2ccccc2n1 [Cinchocaine]	1.7 fold	wt conversion (amide synthetase McbA [2]): 2%
CCN(CC)CCNC(=O)c1ccc(N)c(Cl)c1 [Declopramide]	2.7 fold	–
COc1ccc(C(=O)NCc2ccc(OCCN(C)C)cc2)cc1OC [Itopride]	1.6 fold	–
wt-McbA: wild-type amide bond synthetase McbA from Marinactinospora thermotolerans with CSL-tag, SEQ ID NO: 2 (protein, CSL-tag) MEKKIWSHPQFEKGGSGENLYFQGGYARRVMDGIGEVAVTGAGGSVTGARLRHQVRLLAHALTEAGIPPGRGVACLHANTWRAIALRLAVQAIGCHYVGLRPTAAVTEQARAIAAADSAALVFEPSVEARAADLLERVSVPVVLSLGPTSRGRDILAASVPEGTPLRYREHPEGIAVVAFTSGTTGTPKGVAHSSTAMSACVDAAVSMYGRGPWRFLIPIPLSDLGGELAQCTLATGGTVVLLEEFQPDAVLEAIERERATHVFLAPNWLYQLAEHPALPRSDLSSLRRVVYGGAPAVPSRVAAARERMGAVLMQNYGTQEAAFIAALTPDDHARRELLTAVGRPLPHVEVEIRDDSGGTLPRGAVGEVWVRSPMTMSGYWRDPERTAQVLSGGWLRTGDVGTFDEDGHLHLTDRLQDIIIVEAYNVYSRRVEHVLTEHPDVRAAAVVGVPDPDSGEAVCAAVVVADGADPDPEHLRALVRDHLGDLHVPRRVEFVRSIPVTPAGKPDKVKVRTWFTD	–	conversion (yield) of moclobemide (amide synthetase McbA [3]; final screening conditions, moclobemide synthesis, 25 mM ATP, acid, amine, 10% v/v DMSO, 37° C. 16 hours): 12%; stereoselectivity (amide synthetase McbA [2]; sulpiride synthesis): strongly favoring the synthesis of S-sulpiride over R-sulpiride; amide bond formation step for troxipide (amide synthetase McbA [1]; proficient at adenylating 3,4,5-trimethoxybenzoic acid, intermediate seen by LCMS): unable to catalyze amide bond formation
qm-McbAmetoclopramide: quadruple mutant of McbA from ISM campaign for metoclopramide, SEQ ID NO: 146 (protein) MEKKIWSHPQFEKGGSGENLYFQGGYARRVMDGIGEVAVTGAGGSVTGARLRHQVRLLAHALTEAGIPPGRGVACLHANTWRAIALRLAVQAIGCHYVGLRPTAAVTEQARAIAAADSAALVFEPSVEARAADLLERVSVPVVLSLGPTSRGRDILAASVPEGTPLRYREHPEGIASVAFTSGTTGTPKGVAHSSTAMSACVDAAVSMYGRGPWRFLIPIPLSDLGGELAQCTLATGGTVVLLEEFQPDAVLEAIERERATHVFLAPNWLYQLAEHPALPRSDLSSLRRVVYGGAPAVPSRVAAARERMGAVLMQNYGCQEAFFIAALTPDDHARRELLTAVGRPLPHVEVEIRDDSGGTLPRGAVGEVWVRSPMTMSGYWRDPERTAQVLSGGWLRTGDVGTFDEDGHLHLTDRLQDIIIVETYNVYSRRVEHVLTEHPDVRAAAVVGVPDPDSGEAVCAAVVVADGADPDPEHLRALVRDHLGDLHVPRRVEFVRSIPVTPAGKPDKVKVRTWFTD	–	activity over wt-McbA (amide synthetase McbA [3]; metoclopramide synthesis, after three rounds of ISM): ~30 fold
ml-McbAtroxipide: best ML-predicted McbA variant for troxipide, SEQ ID NO: 155 (protein) MEKKIWSHPQFEKGGSGENLYFQGGYARRVMDGIGEVAVTGAGGSVTGARLRHQVRLLAHALTEAGIPPGRGVACLHANTWRAIALRLAVQAIGCHYVGLRPTAAVTEQARAIAAADSAALVFEPSVEARAADLLERVSVPVVLSLGPTSRGRDILAASVPEGTPLRYREHPEGIAAVAFTSGTTGTPKGVAHSSTAMSACVDAAVSMYGRGPWRFLIPIPLSDLGGELAQCTLATGGTVVLLEEFQPDAVLEAIERERATHVFLAPNWLYQLAEHPALPRSDLSSLRRVVYGGAPAVPSRVAAARERMGAVLMQNYGTQEALFIAALTPDDHARRELLTAVGRPLPHVEVEIRDDSGGTLPRGAVGEVWVRSPMTMSGYWRDPERTAQVLSGGWLRTGDVGTFDEDGHLHLTDRLQDIIIVETYNVYSVRVEHVLTEHPDVRAAAVVGVPDPDSGEAVCAAVVVADGADPDPEHLRALVRDHLGDLHVPRRVEFVRSIPVTPAGKPDKVKVRTWFTD	–	increase in activity (amide synthetase McbA [1]; troxipide synthesis, versus wt-McbA): 34 fold
